According to patent publication US5317010A, “Parathyroid hormone analogues substituted at AA 25, 26, 27, and use in osteoporosis treatment” (Pang; Peter K. T., priority 1991, dated 1994):
“Also recorded” adds a separate entry of the source. Ends that are not written are not given here.

Columns and labels:
Sprague-Dawley rats = test: In vivo blood pressure measurement in anaesthetized rats
Experimental: Sprague-Dawley (S-D) rats were anaesthetized with pentobarbital and a cannula was inserted into the carotid artery. The rats were kept sedated during the procedure and were injected with PTH peptides only when the blood pressure of the rats were stable. Peptides were injected through a cannula in the jugular vein, in amounts of 1, 3 and 5 or more μg/kg and the mean systolic and diastolic blood pressure was monitored continuously throughout the procedure. Results are reported with comparison to bPTH-(1-34).

[1] = tested on: UMR-106 rat osteosarcoma cells; test: Intracellular free calcium concentration (FURA-2) with KCl stimulation; type: cell-based; settings: cultured UMR osteoblast cells, in the presence of KCl
Experimental: Because osteoporosis is a progressive syndrome, a model is required and the use of cultured osteoblasts of the UMR-106.rat osteosarcoma cells, ATCC CRL 1661 have been used as the model. Uptake of calcium in these cells has been monitored using the FURA-2 method, wherein a fluorescent dye which is specific for calcium is used as a marker for calcium change into the cells. Cells are incubated with 1-10 μM of the acetomethoxy ester of FURA-2 for 30-60 minutes. Upon uptake, the ester is hydrolyzed to release free FURA-2, which selectively binds free Ca^2+. FURA-2 has a characteristic fluorescence spectrum, which wavelength is shifted when the dye binds to free Ca^2+. According to the method, Ca^2+ which is present in the cell can be quantified by exciting the dye at two different wavelengths, 340 and 380 nm. The emission fluorescence is measured at 510 nm. […] It is conventional to report the concentration of calcium within the cell in terms of the fluorescence ratio, the 340/380 ratio. […]
Intracellular free calcium concentration was measured using the fluorescent dye FURA-2 according to the method of Grynkiewicz et al., J. Biol. Chem., 260, 3440 (1985) and Pang et al., P. N. A. S. (USA), 87, 623 (1990). […] Quantitation is obtained by exciting the dye at two different wavelengths, preferably 340 and 380 nm and measuring the fluorescent emission at 510 nm. […]

[2] = tested on: rat tail artery helical strip; test: In vitro rat tail artery helical strip tension assay; settings: precontracted with AVP, FIG. 20
Text: We have developed a method for modeling the hypotensive effects of natural and synthetic chemical compounds using helically cut tail arteries from Sprague-Dawley rats in a Sawyer-Bartlestone chamber, measuring the change in tension with a force displacement transducer. This method and the effect of bovine PTH-(1-34) in this system is described in Blood Vessels, 22, 57 (1985). […] FIGS. 12, 16 and 20 illustrate the effect of the PTH analogues of this invention as measured using this in vitro technique. Alternatively, the strips may be precontracted using other pressor substances such as norepinephrine (NE) or KCl.
The assay was performed according to Pang et al., Blood Vessels, 22, 57 (1985). Sprague-Dawley rats were anaesthetized with pentobarbital and the tail artery excised and placed in ice-cold Krebs-Hanseleit solution (KHS) oxygenated with 95% O2, 5% CO2. […] The force generated by the strips was measured with a Grass FT03 force displacement transducer and recorded on a polygraph. […]
One to two minutes prior to addition of a peptide, the strips were contracted by addition of either arginine vasopressin (AVP), potassium chloride (KCl) or norepinephrine (NE) to the bath. The peptide was then added to the bath and the degree of relaxation measured. […] Drug dose is calculated on the basis of the final concentration in the bath solution.

[3] = tested on: right atrial tissue of Sprague-Dawley rats; test: In vitro atrial contractility and contraction rate measurement; settings: Sprague-Dawley rat right atrium; for effect on contraction rate of right atrial tissue: FIGS. 24-25
Text: We have also developed a method of modeling the chronotropic effects of natural and synthetic chemicals using the right atrium from Sprague-Dawleyrats and measuring the change in the force and rate of atrium contraction. This method and the effects of bovine PTH (1-34) in this system are described in Tenner et al, The Canadian Journal of Physiology and Pharmacology, Volume 61, No. 10 (1983) pp. 1162-1167. […] FIGS. 24-25 illustrate the effect of the PTH analogues of this invention as measured using this in vitro technique.
The assay was performed according to Tenner et al., Canadian Journal of Physiology and Pharmacology, Vol. 61, No. 10 (1983) pp. 1162-1167. Sprague-Dawley rats weighing between 100 and 250 g were treated with heparin (500 IU, i.p.) 15 minutes prior to decapitation. Thoracotomies were performed and the heart rapidly excised and placed in a cold physiological salt solution (PSS) having the following composition (in millimolar): NaCl, 120; KCl, 5.63; CaCl2, 2.0; MgCl2, 2.1; NAHCO3, 25.0; dextrose, 9.7. The solution was continuously aerated by a gas mixture of 95% O2 -5% CO2. The right atrium was isolated and suspended in a tissue chamber containing 20 mL of PSS at 37° C., pH 7.4. Atria were allowed to equilibrate for 1 hr under a resting tension of 1 g.
The atrial rate and force were determined from contractions recorded by a Grass FT.03 force-displacement transducer and a Grass model 79 polygraph. The Basial atrial rate f or control atria (as determined by counting the frequency of contractions) was 258±7 bpm (n=29). Basal developed force of the spontaneously beating right atria was 0.33±0.06 g (n=10) . Dose-response curves for the peptides were obtained by cumulative addition of the respective peptides. Drug dose is calculated on the basis of the final concentration in the bath solution.

| Molecule | condition of rats due to blood pressure (Sprague-Dawley rats; 5 μg/kg, Sprague-Dawley rats) | effect on KCl-induced intracellular [Ca2+]i increase [1] | effect on mean arterial blood pressure (Sprague-Dawley rats; anesthetized Sprague-Dawley rats, FIGS. 15, 19) | relaxation of rat tail artery helical strips [2] | effect on contractility of right atrial tissue ([3]; FIG. 24) | effect on contraction rate of right atrial tissue [3] |
| --- | --- | --- | --- | --- | --- | --- |
| PTH: parathyroid hormone (native PTH); in FIGS. 14 a-d it is bPTH-(1-34) [reference compound] | essentially moribund | inhibits intracellar [Ca^2+ ]i increases |  |  |  |  |
| SVSEIQLMHNLGKHLNSMERVEWLAAALQDVHNF [Cs221] |  | comparable to the inhibition of intracellular [Ca^2+ ]i increases by hPTH; also recorded: lower intracellular calcium increments | least decrease in blood pressure | least relaxation | minimal effect | minimal effect |
| Cs2001: human PTH 1-84, no substitution (SEQ ID NO:2) (peptide) SVSEIQLMHNLGKHLNSMERVEWLRKKLQDVHNFVALGASIAYRDGSSQRPRKKEDNVLVESHQKSLGEADKADVDVLIKAKPQ |  |  |  |  |  | increase the contraction rate |
